Results reported in patent publication US20130345419A1, “AZOLE DERIVATIVE” (TAISHO PHARMACEUTICAL CO., LTD., priority 2011, published 2013).
Values after ≈ are worked out from the molar mass of the structure shown.

Key:
human recombinant FKBP12 = target: T1, human recombinant FKBP12 (Homo sapiens, UniProt P62942); test: Test 1: immunophilin FKBP12 rotamase (peptidylprolyl isomerase) inhibiting activity; format: biochemical; conditions: 12 nM human recombinant FKBP12, substrate succinyl-Ala-Phe-Pro-Phe-paranitroanilide 48 μM, 4° C.; read-out: PKBP12 rotamase inhibiting activity IC50
T1 construct: purchased Sigma F-5398
T1 sequence (P62942 whole entry): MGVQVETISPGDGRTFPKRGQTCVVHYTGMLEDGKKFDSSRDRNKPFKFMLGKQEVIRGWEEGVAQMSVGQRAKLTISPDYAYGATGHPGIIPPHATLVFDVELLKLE
Experimental: (Test 1) Test for Measuring Immunophilin FKBP12 Rotamase Activity
The rotamase (peptidylprolyl isomerase) inhibiting activity of each test compound was measured by a known method (Harding et al., Nature 341, 758-760, 1989; Holts et al., J. Am. Chem. Soc. 115, 9925-9938, 1993.) To be more specific, a plastic cuvette was charged with 35 mM HEPES (pH 7.8), 12 nM human recombinant FKBP12 (Sigma, F-5398), 0.4 mg/mL α-chymotrypsin, and a test compound dissolved in DMSO at varying concentrations (DMSO's final concentration was 0.1%.) Subsequently, 24 mM of the substrate peptide, succinyl-Ala-Phe-Pro-Phe-paranitroanilide, as dissolved in trifluoroethanol containing 500 mM of LiCl was added to give a final concentration of 48 μM, whereupon reaction started. The reaction was carried out at 4° C. and the change in absorbance at 390 nm accompanying the liberation of the paranitroaniline product was monitored. A calculated initial rate minus the corresponding value in the absence of the enzyme was used as an index of rotamase activity. The rotamase inhibiting activity of a test compound was expressed in relative values (%) with respect to the control value of rotamase activity in the absence of the compound, and the concentration of the compound at which it was capable of inhibiting rotamase activity by 50% was calculated as an IC50 value from its concentration response curve.

[1] = Test 2: dissolution test in 1,3-butylene glycol/water/ethanol base; format: physicochemical; conditions: base: 5 g 1,3-butylene glycol + 10 g water, ethanol to 100 mL, stirred at 25° C. for 7 days, HPLC
Experimental: (Test 2) Dissolution Test
To 5 g of 1,3-butylene glycol, 10 g of water was added and the mixture was stirred until homogeneity; thereafter, ethanol was added to make a total volume of 100 mL, whereby a base was prepared.

C57BL mice [2] = test: Test 3: hair development stimulating effect in shaven mouse model (Compound 1); format: in vivo; conditions: 5% (w/v) solution in Test 2 base, 200 μL on shaven back once daily, day 15 of the administration and onward
Experimental: (Test 3) Test for Measuring Hair Development Stimulating Effect in Shaven Mouse Model
(§1) C57BL mice (female, ca. 7-wk old) were shaven on the back and the base prepared in Test 2 or a solution prepared by dissolving 5% (w/v) of Compound 1 in this base was administered by applying them to the shaven area in 200-μL portions once daily starting 3 days after the shaving (each group consisting of 10 heads.) Every 2 or 3 days after the start of the administration, the state of hair development in the shaven area was scored in accordance with the following criteria.
(§2) Criteria for scoring the hair development: 1=No hair development. 2=Hair development in less than 30% of the shaven area. 3=Hair development in at least 30% but less than 60% of the shaven area. 4=Hair development in at least 60% but less than 90% of the shaven area. 5=Hair development in at least 90% of the shaven area.

[3] = Test 4: dissolution test in ethanol/water base; format: physicochemical; conditions: organic solvent or mixture, thermodynamic from solid; base: 79 mL ethanol, water to 100 mL; stirred at 5° C. for 3 days; HPLC
Experimental: (Test 4) Dissolution Test
To 79 mL of ethanol, water was added to give a total volume of 100 mL, whereby a base was prepared. An excess amount of a test compound was put into a test tube, the prepared base was added, and the mixture was stirred at 5° C. for 3 days and passed through a membrane filter (0.45 μm); the resulting filtrate was diluted with acetonitrile and the concentration of the diluted solution was measured by HPLC to determine the solubility of the compound.

C57BL mice [4] = test: Test 5: hair development stimulating effect in shaven mouse model (Compound 40); format: in vivo; conditions: 5% (w/v) solution in Test 4 base, 200 μL on shaven back once daily, day 15 of the administration and onward
Text: as §2
(Test 5) Test for Measuring Hair Development Stimulating Effect in Shaven Mouse Model
as §1, with “Test 4” for “Test 2”, “Compound 40” for “Compound 1”, “the criteria described in Test 3.” for “the following criteria.”

[5] = tested on: proliferating cell nuclear antigen (PCNA); test: Test 6: anagen induction stimulating effect in shaven mouse model, skin PCNA by ELISA; format: in vivo; conditions: 5% (w/v) in 80% ethanol, 200 μL once daily for 2 days, skin sampled about 4 hours after second administration, C57BL mice
Experimental: (Test 6) Test for Measuring Anagen Induction Stimulating Effect in Shave Mouse Model
The anagen induction stimulating effect of a compound was measured by the following method with the quantity of skin PCNA being used as an index.
C57BL mice (female, ca. 7-wk old) were shaven on the back and a base (80% ethanol) or a solution prepared by dissolving 5% (w/v) of Compound 40, 52, 59, 61, 63, 64 or 66 in this base was administered by applying them to the shaven area in 200-μL portions once daily for 2 days starting 3 days after the shaving (each group consisting of 5 heads.) About 4 hours after the administration on the second day, the skin at the application site was sampled and homogenized in a buffer containing 50 mM Tris-HCl (pH 7.6), 150 mM NaCl, 1% NP-40, and a protease inhibitor. By a centrifugal separation procedure, a PCNA containing protein solution was prepared and the quantity of PCNA in the solution was measured with a PCNA-ELISA kit of Calbiochem, Inc.

| IC50 (human recombinant FKBP12) [nM] | solubility at 7 days ([1]; 1,3-butylene glycol/water/ethanol base, organic solvent or mixture, thermodynamic from solid) [mg/mL] | solubility at 3 days [3] [mg/mL] | solubility [1] [mg/mL] | Structure (SMILES) | hair development scores versus base administered group (C57BL mice [2]) | hair development scores versus base administered group (C57BL mice [4]) | quantity of skin PCNA versus base administered group [5] |
| --- | --- | --- | --- | --- | --- | --- | --- |
| 49 | 57.5 | – | – | COc1ccc(OCc2cc([C@@H]3CCCN3C(=O)C(F)(F)C3(O)CC(C)(C)CC(C)(C)C3)no2)cc1OC [Compound 1, (S)-1-(2-(5-((3,4-Dimethoxyphenoxy)methyl)isoxazol-3-yl)pyrrolidin-1-yl)-2,2-difluoro-2-(1-hydroxy-3,3,5,5-tetramethylcyclohexyl)ethanone] | higher than those in the base administered group | – | – |
| 83 | – | 113 (≈ 237 mM) | – | CC1(C)CC(C)(C)CC(O)(C(F)(F)C(=O)N2CCC[C@H]2c2cc(COc3cccnc3)on2)C1 [Compound 40, (S)-2,2-Difluoro-2-(1-hydroxy-3,3,5,5-tetramethylcyclohexyl)-1-(2-(5-((pyridin-3-yloxy)methyl)isoxazol-3-yl)pyrrolidin-1-yl)ethanone] | – | higher than those in the base administered group | higher values for the quantity of skin PCNA than the group administered with the base |
| – | – | – | 30.8 | COc1ccc(OCc2nc([C@@H]3CCCN3C(=O)C(F)(F)C3(O)CC(C)(C)CC(C)(C)C3)no2)cc1OC [comparative example, reference compound] | – | – | – |
